Patent US8846739B2, “TGR5 agonists” (Exelixis Patent Company LLC, priority 2009, dated 2014)
Where a name gives a salt, the structure may show the parent alone.

Columns and labels:
human TGR5 (h-TGR5) = target: T1, human TGR5 (h-TGR5) (Homo sapiens, UniProt Q8TDU6); experiment: TGR5/CRE-Luciferase Assay; type: cell-based; details: HEK 293 hTGR5/CRE-Luc cells, 6 hours incubation, read-out: CRE-Luc Agonist (EC50)
T1 sequence (Q8TDU6 1-330): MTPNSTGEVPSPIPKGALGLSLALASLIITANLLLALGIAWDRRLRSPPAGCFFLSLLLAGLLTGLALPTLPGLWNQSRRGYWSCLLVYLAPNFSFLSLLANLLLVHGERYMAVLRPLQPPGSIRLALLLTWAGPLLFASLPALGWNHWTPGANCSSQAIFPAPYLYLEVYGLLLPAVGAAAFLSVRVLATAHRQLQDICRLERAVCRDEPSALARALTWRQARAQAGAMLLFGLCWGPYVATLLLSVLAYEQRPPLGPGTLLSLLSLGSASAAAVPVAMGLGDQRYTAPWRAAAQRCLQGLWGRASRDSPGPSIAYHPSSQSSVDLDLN
Procedure: HEK 293 cells stably expressing human TGR5 (h-TGR5) or mouse TGR5 (m-TGR5) were generated from HEK 293 CRE-Luciferase cells. The day before the assay, HEK 293 hTGR5/CRE-Luc cells were plated in DMEM in a 384 well assay plate at a density of 25 k cells/45 μL per well and grown for 18-20 hours. Compounds were serially diluted in DMEM containing 5% DMSO and 5 µL of compound or media alone was transferred to each well and plates were incubated for 6 hours. Following incubation, 30 μL of lysis/luciferase buffer was added to each well. The luciferase activity was then measured on the EnVision™ plate reader and the dose response data was analyzed using ActivityBase.
(§1) In the following tables, ECso values determined according to the TGR5 cAMP Assay are noted (cAMP); EC50 values determined according to the TGR5/CRE-Luciferiase Assay are noted (CRE-Luc).

h-TGR5 = target: T2, h-TGR5 (Homo sapiens, UniProt Q8TDU6); experiment: TGR5 cAMP Assay using Cisbio cAMP Dynamic 2 htrf assay kit; type: cell-based; details: hTGR5CRE-luc HEK 293 cells
T2 sequence (Q8TDU6 1-330): T1 sequence (Q8TDU6 1-330)
Procedure: Compounds were diluted in DPBS with 5% DMSO (8-point serial dilution by half logs) in a 96-well plate and 1 μL was transferred to a 384-well assay plate in quadruplicate. The d2-cAMP and anti-cAMP Ab-cryptate stock solution were prepared as per the instructions in the Cisbio™ (Bedford, Mass.) kit. Cells (hTGR5CRE-luc HEK 293 and mTGR5CRE-luc HEK 293) were harvested using cell dissociation buffer and resuspended in DPBS. Cells were adjusted to 0.44×10^6 cells/ml followed by addition of IBMX to a final concentration of 0.5 mM. The cells were then mixed with d2-cAMP solution (7.1 mL cells+100 ul d2-cAMP) and 4000 cells (9 μL) were transferred to each well of the 384-well assay plate. Cells without d2-cAMP were added to eight wells as a negative control. The plate was covered and incubated at room temp for 30 min. Then 10 μL of Ab-cryptate solution was added to each well of the assay plate and incubated for 1 hr. The plate was read on an EnVision™ plate reader (Perkin-Elmer, Waltham, Mass.) and the DeltaF value was calculated as per the instructions in the Cisbio™ kit.
as §1

Structure (SMILES) | EC50 (human TGR5 (h-TGR5)) [µM] | EC50 (h-TGR5) [µM]
COc1cc(C(C)(C)c2cnc(SCc3c(F)cc(S(=O)(=O)N(CCCO)CCC[N+](C)(C)C)cc3F)n2-c2ccc(F)cc2)ccc1Cl [Compound 12g, 3-(4-((5-(2-(4-chloro-3-methoxyphenyl)propan-2-yl)-1-(4-fluorophenyl)-1H-imidazol-2-ylthio)methyl)-3,5-difluoro-N-(3-hydroxypropyl)phenylsulfonamido)-N,N,N-trimethylpropan-1-aminium 2,2,2-trifluoroacetate] | < 0.1 | < 0.1
CC(C)(c1ccc(Cl)c(O)c1)c1cnc(SCc2c(F)cc(S(=O)(=O)NCCC[N+](C)(C)C)cc2F)n1-c1ccc(F)cc1 [Compound 13a, 3-(4-((5-(2-(4-chloro-3-hydroxyphenyl)propan-2-yl)-1-(4-fluorophenyl)-1H-imidazol-2-ylthio)methyl)-3,5-difluorophenylsulfonamido)-N,N,N-trimethylpropan-1-aminium 2,2,2-trifluoroacetate] | 0.1 to 1 | 0.1 to 1
COc1cc(C(C)(C)c2cnc(SCc3c(F)cc(S(=O)(=O)N[C@@H]4CCC[N+](C)(C)C4)cc3F)n2-c2ccc(F)cc2)ccc1Cl [Compound 11d, (3R)-3-({[4-({[5-{1-[4-chloro-3-(methyloxy)phenyl]-1-methylethyl}-1-(4-fluorophenyl)-1H-imidazol-2-yl]thio}methyl)-3,5-difluorophenyl]sulfonyl}amino)-1,1-dimethylpiperidinium] | < 0.1 | < 0.1
COc1cc(C(C)(C)c2cnc(SCc3c(F)cc(S(=O)(=O)N4CC[C@H]([N+](C)(C)C)C4)cc3Cl)n2-c2ccc(F)cc2)ccc1Cl [Compound 11l, (3S)-1-{[3-chloro-4-({[5-{1-[4-chloro-3-(methyloxy)phenyl]-1-methylethyl}-1-(4-fluorophenyl)-1H-imidazol-2-yl]thio}methyl)-5-fluorophenyl]sulfonyl}-N,N,N-trimethylpyrrolidin-3-aminium] | < 0.1 | < 0.1
COc1ccc(C(C)(C)c2cnc(SCc3c(F)cc(S(=O)(=O)N(C)[C@@H](CCC[N+](C)(C)C)C(=O)O)cc3F)n2-c2ccc(F)cc2)cc1Cl [Compound 14g, (S)-4-carboxy-4-(4-((5-(2-(3-chloro-4-methoxyphenyl)propan-2-yl)-1-(4-fluorophenyl)-1H-imidazol-2-ylthio)methyl)-3,5-difluoro-N-methylphenylsulfonamido)-N,N,N-trimethylbutan-1-aminium chloride] | < 0.1 | < 0.1
COc1cc(C(C)(C)c2cnc(SCc3c(F)cc(S(=O)(=O)N(CCC[N+](C)(C)C)[C@H](C(=O)O)[C@@H](C)O)cc3Cl)n2-c2ccc(F)cc2)ccc1Cl [Compound 14ac, 3-([(1S,2R)-1-carboxy-2-hydroxypropyl]{[3-chloro-4-({[5-{1-[4-chloro-3-(methyloxy)phenyl]-1-methylethyl}-1-(4-fluorophenyl)-1H-imidazol-2-yl]thio}methyl)-5-fluorophenyl]sulfonyl}amino)-N,N,N-trimethylpropan-1-aminium] | < 0.1 | < 0.1
COc1ccc(CN(CCC[N+](C)(C)C)S(=O)(=O)c2cc(F)c(CSc3ncc(C(C)(C)c4ccc(Cl)c(OC)c4)n3-c3ccc(F)cc3)c(F)c2)cc1 [Compound 14ae, 3-({[4-({[5-{1-[4-chloro-3-(methyloxy)phenyl]-1-methylethyl}-1-(4-fluorophenyl)-1H-imidazol-2-yl]thio}methyl)-3,5-difluorophenyl]sulfonyl}{[4-(methyloxy)phenyl]methyl}amino)-N,N,N-trimethylpropan-1-aminium] | < 0.1 | 0.1 to 1
COc1cc(C(C)(C)c2cnc(SCc3c(F)cc(S(=O)(=O)N4CC([N+](C)(C)C)C4)cc3Cl)n2-c2ccc(F)cc2)ccc1Cl [Compound 11n, 1-{[3-chloro-4-({[5-{1-[4-chloro-3-(methyloxy)phenyl]-1-methylethyl}-1-(4-fluorophenyl)-1H-imidazol-2-yl]thio}methyl)-5-fluorophenyl]sulfonyl}-N,N,N-trimethylazetidin-3-aminium] | < 0.1 | < 0.1
COc1cc(-n2c(C(C)(C)c3ccc(F)c(Cl)c3)cnc2SCc2c(F)cc(S(=O)(=O)NCCC[N+](C)(C)C)cc2F)ccc1F [Example 6h, 3-[({4-[({5-[1-(3-chloro-4-fluorophenyl)-1-methylethyl]-1-[4-fluoro-3-(methyloxy)phenyl]-1H-imidazol-2-yl}thio)methyl]-3,5-difluorophenyl}sulfonyl)amino]-N,N,N-trimethylpropan-1-aminium] | < 0.1 | < 0.1
COc1cc(C(C)(C)c2cnc(SCc3c(F)cc(C#CC[N+](C)(C)C)cc3F)n2-c2ccc(F)cc2)ccc1Cl [Compound 18, 3-(4-((5-(2-(4-Chloro-3-methoxyphenyl)propan-2-yl)-1-(4-fluorophenyl)-1H-imidazol-2-ylthio)methyl)-3,5-difluorophenyl)-N,N,N-trimethylprop-2-yn-1-aminium 4-methylbenzenesulfonate] | < 0.1 | < 0.1
COc1cc(C(C)(C)c2cnc(SCc3c(F)cc(S(=O)(=O)Nc4cccc[n+]4C)cc3Cl)n2-c2ccc(F)cc2)ccc1F [Compound 11t, 2-({[3-chloro-5-fluoro-4-({[5-{1-[4-fluoro-3-(methyloxy)phenyl]-1-methylethyl}-1-(4-fluorophenyl)-1H-imidazol-2-yl]thio}methyl)phenyl]sulfonyl}amino)-1-methylpyridinium] | < 0.1 | < 0.1
COc1cc(C(C)(C)c2cnc(SCc3c(F)cc(C(=O)NCC[N+]45CCN(CC4)CC5)cc3Cl)n2-c2ccc(F)cc2)ccc1Cl [Example 2, 1-(2-(3-chloro-4-((5-(2-(4-chloro-3-methoxyphenyl)propan-2-yl)-1-(4-fluorophenyl)-1H-imidazol-2-ylthio)methyl)-5-fluorobenzamido)ethyl)-4-aza-1-azoniabicyclo-[2.2.2]octane chloride hydrochloride] | < 0.1 | < 0.1
COc1cc(C(C)(C)c2cnc(SCc3c(F)cc(S(=O)(=O)N(CCCC[N+](C)(C)C)CC(=O)O)cc3F)n2-c2ccc(F)cc2)ccc1Cl [Compound 14o, 4-[(carboxymethyl){[4-({[5-{1-[4-chloro-3-(methyloxy)phenyl]-1-methylethyl}-1-(4-fluorophenyl)-1H-imidazol-2-yl]thio}methyl)-3,5-difluorophenyl]sulfonyl}amino]-N,N,N-trimethylbutan-1-aminium] | < 0.1 | < 0.1
COC(=O)C(C)(C)N(CCC[N+](C)(C)C)S(=O)(=O)c1cc(F)c(CSc2ncc(C(C)(C)c3ccc(Cl)c(OC)c3)n2-c2ccc(F)cc2)c(F)c1 [Compound 14af, 3-({[4-({[5-{1-[4-chloro-3-(methyloxy)phenyl]-1-methylethyl}-1-(4-fluorophenyl)-1H-imidazol-2-yl]thio}methyl)-3,5-difluorophenyl]sulfonyl}[1,1-dlmethyl-2-(methyloxy)-2-oxoethyl]amino)-N,N,N-trimethylpropan-1-aminium] | < 0.1 | < 0.1
CC[N+](CC)(CC)CCCNS(=O)(=O)c1cc(F)c(CSc2ncc(C(C)(C)c3ccc(Cl)c(OC)c3)n2-c2ccc(F)cc2)c(F)c1 [Example 6m, 3-({[4-({[5-{1-[4-chloro-3-(methyloxy)phenyl]-1-methylethyl}-1-(4-fluorophenyl)-1H-imidazol-2-yl]thio}methyl)-3,5-difluorophenyl]sulfonyl}amino)-N,N,N-triethylpropan-1-aminium] | < 0.1 | < 0.1
